One experiment deals with MCF-7 cells. The experiment can be described thus: Cell Growth Inhibition, MCF-7 (CellTiterGlo, 6 days). Format: cell-based. The settings on record: Homo sapiens, MCF7, 144 h, MCF-7, 6-day treatment. Summed up: (§1)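 MCF-7 (ER+ breast adenocarcinoma) or CCNE1-amplified OVCAR-3 cells, 500/well in RPMI with 10% FBS, treated with half-log dilutions typically 10-10,000 nM for 6 days at 37 °C. CellTiterGlo 2.0 luminescence gave % growth inhibition versus control; IC50 by four-parameter variable-slope fit.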

For another experiment, the target named is CDK6/Cyclin D3 (Homo sapiens (Human), UniProt Q00534). The experiment can be described thus: CDK6/Cyclin D3 ADP-Glo Kinase Assay. Type of experiment: biochemical. The settings on record: 100 uM ATP, read-out: CDK6/ CyclinD3 IC50. The procedure, abridged:
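Enzyme and inhibitor were pre-incubated for 30 min at room temperature before ATP/substrate was added. The kinase reaction ran 90 min at room temperature, and ADP formed was detected by ADP-Glo luminescence. IC50 was fitted with a 4-parameter equation to fractional velocity versus inhibitor concentration.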

The next experiment deals with CDK4/Cyclin D1 (Homo sapiens (Human), UniProt P11802). The experiment can be described thus: CDK4/Cyclin D1 CHEF Assay (AQT0258 peptide). Type of experiment: biochemical. The conditions noted are these: 200 uM ATP, read-out: CDK4/ CyclinD1 AQT IC50. The procedure, abridged: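 Sox-labelled peptide AQT0258 phosphorylation read as chelation-enhanced fluorescence (ex 360/em 485 nm) with Mg(II). Enzyme preincubated with inhibitor 30 min at 22°C, substrate added, 3 h at 22°C; IC50 from four-parameter fit of fractional velocity versus inhibitor concentration.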
Sequence of CDK4/Cyclin D1 (P11802 whole entry): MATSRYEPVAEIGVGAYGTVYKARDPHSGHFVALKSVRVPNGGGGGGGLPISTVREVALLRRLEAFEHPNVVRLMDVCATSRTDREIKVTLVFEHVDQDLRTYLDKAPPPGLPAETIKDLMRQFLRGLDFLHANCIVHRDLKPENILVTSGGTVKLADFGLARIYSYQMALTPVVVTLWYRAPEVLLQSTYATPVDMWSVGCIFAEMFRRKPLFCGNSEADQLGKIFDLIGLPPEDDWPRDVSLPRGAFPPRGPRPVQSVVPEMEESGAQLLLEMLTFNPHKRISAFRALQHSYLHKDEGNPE
Sequence of CDK4/Cyclin D1 (P24385 whole entry partner): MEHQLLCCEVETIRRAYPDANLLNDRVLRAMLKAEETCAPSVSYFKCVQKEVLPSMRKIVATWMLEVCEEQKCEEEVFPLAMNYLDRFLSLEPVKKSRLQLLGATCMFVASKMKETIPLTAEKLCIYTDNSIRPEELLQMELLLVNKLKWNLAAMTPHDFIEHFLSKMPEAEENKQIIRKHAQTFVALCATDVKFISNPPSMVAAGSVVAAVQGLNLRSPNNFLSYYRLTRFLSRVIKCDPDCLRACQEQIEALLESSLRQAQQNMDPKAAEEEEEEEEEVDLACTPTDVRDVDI

A further experiment deals with OVCAR-3 cells. The experiment can be described thus: Cell Growth Inhibition, OVCAR-3 (CellTiterGlo, 6 days). The conditions noted are these: Homo sapiens, 144 h, OVCAR-3, 6-day treatment. Type of experiment: cell-based. The procedure, abridged:
as §1

For a further experiment, the target named is CDK2/Cyclin E1 (Homo sapiens (Human), UniProt P24941). The experiment can be described thus: CDK2/Cyclin E1 Full length ADP-Glo Kinase Assay. Type of experiment: biochemical. The settings on record: 20 uM ATP, read-out: CDK2/ CyclinE1 IC50. Summed up: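 Full-length human CDK2/cyclin E1 was preincubated 30 min at room temperature with inhibitor, then reacted 90 min with ATP-containing substrate solution. ADP formed was measured by ADP-Glo luminescence; IC50 from 4-parameter fit of fractional velocity versus inhibitor concentration.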

In a further experiment the target is CDK1/Cyclin B1 (Homo sapiens (Human), UniProt P06493). The experiment can be described thus: CDK1/Cyclin B1 ADP-Glo Kinase Assay. Format: biochemical. Summed up:
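Enzyme and inhibitor pre-incubated 30 min at room temperature before ATP/substrate addition; reaction run 90 min at room temperature. ADP formed measured by ADP-Glo luminescence; IC50 from a 4-parameter fit of fractional velocity versus inhibitor concentration.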

The mark [1] stands for this setting: ADP-Glo, 80 uM ATP, read-out: CDK1 Cyclin B1 IC50.

Read-outs that look alike come from different tables or passages of the source.

Among the data in US20240034731A1, “AZA-QUINAZOLINE COMPOUNDS AND METHODS OF USE” (Iambic Therapeutics, Inc., priority 2022, published 2024) are IC50 values, retold here.

Sequence of CDK1/Cyclin B1 (P06493 whole entry): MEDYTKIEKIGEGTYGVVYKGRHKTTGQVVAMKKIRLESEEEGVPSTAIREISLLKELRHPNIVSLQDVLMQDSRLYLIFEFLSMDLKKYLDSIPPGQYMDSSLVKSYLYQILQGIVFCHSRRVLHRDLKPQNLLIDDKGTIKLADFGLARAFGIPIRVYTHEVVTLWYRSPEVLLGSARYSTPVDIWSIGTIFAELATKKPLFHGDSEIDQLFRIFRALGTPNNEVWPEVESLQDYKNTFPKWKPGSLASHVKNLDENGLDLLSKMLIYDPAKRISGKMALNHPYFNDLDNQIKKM
Sequence of CDK1/Cyclin B1 (P14635 whole entry partner): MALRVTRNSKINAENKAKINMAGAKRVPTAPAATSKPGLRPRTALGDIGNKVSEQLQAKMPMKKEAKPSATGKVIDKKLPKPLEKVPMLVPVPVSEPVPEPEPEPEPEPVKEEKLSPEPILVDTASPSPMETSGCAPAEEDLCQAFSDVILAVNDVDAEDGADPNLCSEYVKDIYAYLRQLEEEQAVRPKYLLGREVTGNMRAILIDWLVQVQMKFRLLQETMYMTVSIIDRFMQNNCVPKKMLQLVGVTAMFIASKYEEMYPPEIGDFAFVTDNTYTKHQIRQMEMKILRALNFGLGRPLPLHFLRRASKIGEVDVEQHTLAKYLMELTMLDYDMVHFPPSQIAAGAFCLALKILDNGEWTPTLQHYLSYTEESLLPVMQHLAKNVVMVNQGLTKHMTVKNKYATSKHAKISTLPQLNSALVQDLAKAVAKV
Sequence of CDK6/Cyclin D3 (Q00534 whole entry): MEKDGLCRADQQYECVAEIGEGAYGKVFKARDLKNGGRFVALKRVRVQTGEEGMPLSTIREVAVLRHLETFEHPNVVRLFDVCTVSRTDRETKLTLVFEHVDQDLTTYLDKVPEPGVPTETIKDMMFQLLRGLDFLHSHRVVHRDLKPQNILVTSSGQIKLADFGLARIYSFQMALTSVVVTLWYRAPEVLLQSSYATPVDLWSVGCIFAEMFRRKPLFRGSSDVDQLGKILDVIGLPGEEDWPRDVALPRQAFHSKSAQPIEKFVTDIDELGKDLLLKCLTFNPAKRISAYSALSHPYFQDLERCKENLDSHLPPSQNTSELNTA
Sequence of CDK6/Cyclin D3 (P30281 whole entry partner): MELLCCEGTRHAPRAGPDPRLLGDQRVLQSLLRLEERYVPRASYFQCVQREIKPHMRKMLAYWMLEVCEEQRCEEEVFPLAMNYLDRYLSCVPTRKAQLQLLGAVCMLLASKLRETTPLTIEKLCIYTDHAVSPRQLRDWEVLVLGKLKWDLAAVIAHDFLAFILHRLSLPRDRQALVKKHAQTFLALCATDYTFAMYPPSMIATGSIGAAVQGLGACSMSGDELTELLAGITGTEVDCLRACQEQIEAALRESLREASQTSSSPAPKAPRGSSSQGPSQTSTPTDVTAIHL

Take `Cc1cc2cnc(NC3CCN(S(C)(=O)=O)CC3)nc2c(C2CC3(C2)CN(C)CCO3)n1` (stereo not drawn) [Compound 84, 6-methyl-8-(8-methyl-5-oxa-8-azaspiro[3.5]nonan-2-yl)-N-(1-(methylsulfonyl)piperidin-4-yl)pyrido[3,4-d]pyrimidin-2-amine]: the IC50 in the experiment on MCF-7 cells was 500 to 2000 nM; at CDK6/Cyclin D3, below 200 nM; on CDK4/Cyclin D1, below 200 nM; with OVCAR-3 cells, 500 to 2000 nM; at CDK2/Cyclin E1, below 200 nM; at CDK1/Cyclin B1 (setting [1]), 200 to 500 nM.

In the case of `Cc1cc2cnc(NC3CCN(S(C)(=O)=O)CC3)nc2c(N2CC3(CNCC3(F)F)C2)n1` [Compound 85, 8-(8,8-difluoro-2,6-diazaspiro[3.4]octan-2-yl)-6-methyl-N-(1-(methylsulfonyl)piperidin-4-yl)pyrido[3,4-d]pyrimidin-2-amine], the IC50 with MCF-7 cells is 500 to 2000 nM; at CDK6/Cyclin D3, below 200 nM; on CDK4/Cyclin D1, below 200 nM; with OVCAR-3 cells it was 500 to 2000 nM; on CDK2/Cyclin E1 it was below 200 nM; at CDK1/Cyclin B1 (setting [1]), below 200 nM.

`Cc1cc2cnc(N[C@@H]3CCOC[C@H]3O)nc2c(N2CC(O)(C3CC3)C2)n1` [Compound 86, 3-cyclopropyl-1-(2-(((3S,4R)-3-hydroxytetrahydro-2H-pyran-4-yl)amino)-6-methylpyrido[3,4-d]pyrimidin-8-yl)azetidin-3-ol]: the IC50 in the experiment with MCF-7 cells was above 2000 nM; at CDK6/Cyclin D3, 200 to 500 nM; on CDK4/Cyclin D1, below 200 nM; in the experiment on OVCAR-3 cells it was above 2000 nM; at CDK2/Cyclin E1, 200 to 500 nM; on CDK1/Cyclin B1 (setting [1]), above 2000 nM.

Turning to `Cc1cc2cnc(NC3CCN(S(=O)(=O)c4cnn(C)c4)CC3)nc2c(N2CC3(CCNCC3(F)F)C2)n1` [Compound 87, 8-(5,5-difluoro-2,7-diazaspiro[3.5]nonan-2-yl)-6-methyl-N-(1-((1-methyl-1H-pyrazol-4-yl)sulfonyl)piperidin-4-yl)pyrido[3,4-d]pyrimidin-2-amine], the IC50 is 500 to 2000 nM with MCF-7 cells; below 200 nM on CDK6/Cyclin D3; below 200 nM on CDK4/Cyclin D1; 200 to 500 nM in the experiment with OVCAR-3 cells; below 200 nM at CDK2/Cyclin E1; below 200 nM on CDK1/Cyclin B1 (setting [1]).

`Cc1cc2cnc(NC3CCN(S(=O)(=O)c4cnn(C)c4)CC3)nc2c(N2CC(F)(F)C3(CNC3)C2)n1` [Compound 89, 8-(8,8-difluoro-2,6-diazaspiro[3.4]octan-6-yl)-6-methyl-N-(1-((1-methyl-1H-pyrazol-4-yl)sulfonyl)piperidin-4-yl)pyrido[3,4-d]pyrimidin-2-amine]: the IC50 is 500 to 2000 nM in the experiment on MCF-7 cells; below 200 nM on CDK6/Cyclin D3; below 200 nM on CDK4/Cyclin D1; 200 to 500 nM with OVCAR-3 cells; below 200 nM at CDK2/Cyclin E1; below 200 nM on CDK1/Cyclin B1 (setting [1]).

As to `CS(=O)(=O)N1CCC(Nc2ncc3cc(C(F)F)nc(N4CC5(CCNCC5(F)F)C4)c3n2)CC1` [Compound 90, 8-(5,5-difluoro-2,7-diazaspiro[3.5]nonan-2-yl)-6-(difluoromethyl)-N-(1-(methylsulfonyl)piperidin-4-yl)pyrido[3,4-d]pyrimidin-2-amine], the IC50 with MCF-7 cells is 500 to 2000 nM; on CDK6/Cyclin D3 it was below 200 nM; on CDK4/Cyclin D1 it was below 200 nM; with OVCAR-3 cells it was 500 to 2000 nM; at CDK2/Cyclin E1, below 200 nM; at CDK1/Cyclin B1 (setting [1]), below 200 nM.

Take `Cc1cc2cnc(NC3CCN(S(C)(=O)=O)CC3)nc2c(N2CC(O)(C(F)F)C2)n1` [Compound 91, 3-(difluoromethyl)-1-(6-methyl-2-((1-(methylsulfonyl)piperidin-4-yl)amino)pyrido[3,4-d]pyrimidin-8-yl)azetidin-3-ol]: the IC50 in the experiment with MCF-7 cells is 500 to 2000 nM; on CDK6/Cyclin D3, below 200 nM; on CDK4/Cyclin D1, below 200 nM; in the experiment with OVCAR-3 cells it was 200 to 500 nM; on CDK2/Cyclin E1, below 200 nM; at CDK1/Cyclin B1 (setting [1]), below 200 nM.

For `Cc1cc2cnc(NC3CCN(S(C)(=O)=O)CC3)nc2c(N2CC(F)(F)C3(CNC3)C2)n1` [Compound 92, 8-(8,8-difluoro-2,6-diazaspiro[3.4]octan-6-yl)-6-methyl-N-(1-(methylsulfonyl)piperidin-4-yl)pyrido[3,4-d]pyrimidin-2-amine], the IC50 in the experiment with MCF-7 cells is 500 to 2000 nM; at CDK6/Cyclin D3 it was below 200 nM; at CDK4/Cyclin D1, below 200 nM; in the experiment on OVCAR-3 cells, 500 to 2000 nM; on CDK2/Cyclin E1, below 200 nM; on CDK1/Cyclin B1 (setting [1]), below 200 nM.

Turning to `Cc1cc2cnc(NC3CCN(S(C)(=O)=O)CC3)nc2c(C2CC(O)(C(F)F)C2)n1` (stereo not drawn) [Compound 93, 1-(difluoromethyl)-3-(6-methyl-2-((1-(methylsulfonyl)piperidin-4-yl)amino)pyrido[3,4-d]pyrimidin-8-yl)cyclobutan-1-ol], the IC50 in the experiment with MCF-7 cells is 500 to 2000 nM; at CDK6/Cyclin D3 it was below 200 nM; on CDK4/Cyclin D1, below 200 nM; in the experiment on OVCAR-3 cells it was 500 to 2000 nM; on CDK2/Cyclin E1 it was below 200 nM; at CDK1/Cyclin B1 (setting [1]), below 200 nM.

In the case of `Cc1cc2cnc(NC3CCN(S(=O)(=O)c4ccn(C)n4)CC3)nc2c(N2CC(F)(F)C3(CNC3)C2)n1` [Compound 94, 8-(8,8-difluoro-2,6-diazaspiro[3.4]octan-6-yl)-6-methyl-N-(1-((1-methyl-1H-pyrazol-3-yl)sulfonyl)piperidin-4-yl)pyrido[3,4-d]pyrimidin-2-amine], the IC50 with MCF-7 cells was 500 to 2000 nM; at CDK6/Cyclin D3 it was below 200 nM; on CDK4/Cyclin D1, below 200 nM; with OVCAR-3 cells, 200 to 500 nM; on CDK2/Cyclin E1, below 200 nM; at CDK1/Cyclin B1 (setting [1]), below 200 nM.

Take `CCS(=O)(=O)N1CCC(Nc2ncc3cc(C)nc(N4CC(F)(F)C5(CNC5)C4)c3n2)CC1` [Compound 95, 8-(8,8-difluoro-2,6-diazaspiro[3.4]octan-6-yl)-N-(1-(ethylsulfonyl)piperidin-4-yl)-6-methylpyrido[3,4-d]pyrimidin-2-amine]: the IC50 with MCF-7 cells was 500 to 2000 nM; on CDK6/Cyclin D3, below 200 nM; on CDK4/Cyclin D1, below 200 nM; with OVCAR-3 cells, 500 to 2000 nM; on CDK2/Cyclin E1, below 200 nM; at CDK1/Cyclin B1 (setting [1]) it was below 200 nM.

On to `Cc1cc2cnc(NC3CCN(S(C)(=O)=O)CC3)nc2c(N2CC(F)(F)C3(CN(C)C3)C2)n1` [Compound 96, 8-(8,8-difluoro-2-methyl-2,6-diazaspiro[3.4]octan-6-yl)-6-methyl-N-(1-(methylsulfonyl)piperidin-4-yl)pyrido[3,4-d]pyrimidin-2-amine], for which the IC50 with MCF-7 cells was 200 to 500 nM; on CDK6/Cyclin D3, below 200 nM; on CDK4/Cyclin D1 it was below 200 nM; with OVCAR-3 cells, 500 to 2000 nM; at CDK2/Cyclin E1, below 200 nM; on CDK1/Cyclin B1 (setting [1]), below 200 nM.

In the case of `Cc1cc2cnc(NC3CCN(S(=O)(=O)c4cnn(C)c4)CC3)nc2c(N2CC(F)(F)C3(CN(C)C3)C2)n1` [Compound 97, 8-(8,8-difluoro-2-methyl-2,6-diazaspiro[3.4]octan-6-yl)-6-methyl-N-(1-((1-methyl-1H-pyrazol-4-yl)sulfonyl)piperidin-4-yl)pyrido[3,4-d]pyrimidin-2-amine], the IC50 is 500 to 2000 nM in the experiment with MCF-7 cells; below 200 nM at CDK6/Cyclin D3; below 200 nM at CDK4/Cyclin D1; 200 to 500 nM in the experiment on OVCAR-3 cells; below 200 nM on CDK2/Cyclin E1; below 200 nM at CDK1/Cyclin B1.

As to `[2H]C([2H])([2H])N1CC2(CN(c3nc(C)cc4cnc(NC5CCN(S(=O)(=O)c6cnn(C)c6)CC5)nc34)CC2(F)F)C1` [Example 11, 8-(8,8-difluoro-2-(methyl-d3)-2,6-diazaspiro[3.4]octan-6-yl)-6-methyl-N-(1-((1-methyl-1H-pyrazol-4-yl)sulfonyl)piperidin-4-yl)pyrido[3,4-d]pyrimidin-2-amine], the IC50 is 500 to 2000 nM in the experiment with MCF-7 cells; below 200 nM on CDK6/Cyclin D3; below 200 nM on CDK4/Cyclin D1; 200 to 500 nM in the experiment on OVCAR-3 cells; below 200 nM on CDK2/Cyclin E1; below 200 nM against CDK1/Cyclin B1.

Take `Cc1cc2cnc(NC3CCN(S(=O)(=O)C4CC4)CC3)nc2c(N2CC3(CCNC3)C2)n1` [Example 25, N-(1-(cyclopropylsulfonyl)piperidin-4-yl)-6-methyl-8-(2,6-diazaspiro[3.4]octan-2-yl)pyrido[3,4-d]pyrimidin-2-amine]: the IC50 with MCF-7 cells was 200 to 500 nM; on CDK6/Cyclin D3 it was below 200 nM; at CDK4/Cyclin D1, below 200 nM; with OVCAR-3 cells, 200 to 500 nM; at CDK2/Cyclin E1, below 200 nM; on CDK1/Cyclin B1 (setting [1]), 200 to 500 nM.

With `Cc1cc2cnc(Nc3cc4c(cc3F)CN(S(C)(=O)=O)C4)nc2c(N2CC3(CCNC3)C2)n1` [Example 39, N-(6-fluoro-2-(methylsulfonyl)isoindolin-5-yl)-6-methyl-8-(2,6-diazaspiro [3.4]octan-2-yl)pyrido[3,4-d]pyrimidin-2-amine], the IC50 in the experiment on MCF-7 cells was 500 to 2000 nM; on CDK6/Cyclin D3 it was above 2000 nM; on CDK4/Cyclin D1 it was 200 to 500 nM; in the experiment on OVCAR-3 cells it was above 2000 nM; at CDK2/Cyclin E1, below 200 nM; on CDK1/Cyclin B1 (setting [1]), above 2000 nM.
